Read-outs that look alike come from different tables or passages of the source.
Assays:
MCF7 (mammary carcinoma) = experiment: Tumor growth inhibitory activity (cytotoxicity), SRB method of Skehan et al, MCF7; assay type: cell-based, human; settings: read-out: IC50 MCF7 (breast)
From the text: (§1) The results were obtained according to the methods of Skehan et al (See Skehan et al., J. Nat. Cancer Inst., 82, 1107 (1990)), as more fully described in the Examples. The resistance factor (R/S) shown in the table is a measure of the degree of resistance of a cell line against a taxoid compound. The resistance factor is a ratio of the cytoxicity of a taxoid compound against a drug-resistant cell line (R) as compared to its cytoxicity against a drug-sensitive cell line (S).
(§2) In the tables, lower numbers indicate higher potency (or greater activity). Paclitaxel was used as the standard for comparison. The data represent the mean values of at least three separate experiments.
(§3) Assessment of cell growth inhibition was determined according to the methods of Skehan et al (See Skehan et al., J. Nat. Cancer Inst., 82, 1107 (1990)). Briefly, cells were plated between 400 and 1200 cells/well in 96 well plates and incubated at 37° C. for 15-18 h prior to drug addition to allow attachment of cells. Compounds tested were solubilized in 100% DMSO and further diluted in RPMI-1640 containing 10 mM HEPES. Each cell line was treated with 10 concentrations of compounds (5 log range). After a 72 h incubation, 100 μL of ice-cold 50% TCA was added to each well and incubated for 1 h at 4° C. Plates were then washed 5 times with tap water to remove TCA, low-molecular-weight metabolites and serum proteins. Sulforhodamine B (SRB) (0.4%, 50 μL) was added to each well. Following a 5 minute incubation at room temperature, plates were rinsed 5 times with 0.1% acetic acid and air dried. Bound dye was solubilized with 10 mM Tris Base (pH 10.5) for 5 min on a gyratory shaker. Optical density was measured at 570 nm.
(§4) Data were fit with the Sigmoid-Emax concentration-effect model with non-linear regression, weighted by the reciprocal of the square of the predicted response (see Holford, N. H. G.; Scheiner, L. B., “Understanding the dose-effect relationship: Clinical applications of pharmaco-kinetic-pharmacodynamic models,” Clin. Pharmacokin., 6, 429-453 (1981)). The fitting software was developed by the Roswell Park Cancer Institute with Microsoft FORTRAN, and uses the Marquardt algorithm (see Marquardt, D. W., “An algorithm for least squares estimation of nonlinear parameters,” J. Soc. Ind. Appl. Math., 11, 431-441 (1963)) as adopted by Nash for the non-linear regression (see Nash, J. C., “Compact numerical method for computers: Linear algebra and function minimization,” John Wiley & Sons, New York, 1979).

[1] = test system: MCF7-R (mammary carcinoma cells 250-fold resistant to paclitaxel); experiment: Tumor growth inhibitory activity (cytotoxicity), SRB method of Skehan et al, MCF7-R; assay type: cell-based, human; settings: for IC50: read-out: IC50 MCF7-R (breast); for R/S (resistance factor): ratio of cytotoxicity against drug-resistant MCF7-R (R) to drug-sensitive MCF7 (S)
From the text: as §1, §2, §3, §4

[2] = Homo sapiens, MCF7, 72 h drug exposure, SRB, mean of at least three separate experiments
[3] = Homo sapiens, MCF7R, drug-resistant cell line, 72 h drug exposure, SRB, mean of at least three separate experiments
[4] = 72 h drug exposure, SRB, mean of at least three separate experiments
[5] = drug-resistant cell line, 72 h drug exposure, SRB, mean of at least three separate experiments

SMILES	IC50 (MCF7 (mammary carcinoma); [2]) [nM]	IC50 [1, 3] [nM]	R/S (resistance factor) [1]	IC50 (MCF7 (mammary carcinoma); [4]) [nM]	IC50 [1, 5] [nM]	IC50 (MCF7 (mammary carcinoma); Homo sapiens, MCF7, 72 h) [nM]	IC50 ([1]; Homo sapiens, MCF7R, 72 h) [nM]
COc1cccc(C(=O)O[C@H]2C3[C@](C)(C(=O)[C@H](OC(C)=O)C4=C(C)[C@@H](OC(=O)[C@H](O)[C@H](C=C(F)F)NC(=O)OC(C)(C)C)C[C@]2(O)C4(C)C)[C@@H](O)C[C@H]2OC[C@@]32OC(C)=O)c1 (stereo partly drawn) [SB-T-12851-1, 3′-Dephenyl-3′-(2,2-difluorovinyl)-2-debenzoyl-2-(3-methoxybenzoyl)-10-acetyldocetaxel]	0.25	1.5	6.0				
CCC(=O)O[C@H]1C(=O)[C@@]2(C)C([C@H](OC(=O)c3cccc(Cl)c3)[C@]3(O)C[C@H](OC(=O)[C@H](O)[C@H](C=C(F)F)NC(=O)OC(C)(C)C)C(C)=C1C3(C)C)[C@]1(OC(C)=O)CO[C@@H]1C[C@@H]2O (stereo partly drawn) [SB-T-12853-4, 3′-Dephenyl-3′-(2,2-difluorovinyl)-2-debenzoyl-2-(3-chlorobenzoyl)-10-propanoyldocetaxel]	0.13	0.45	3.5				
CC(=O)OC12COC1CC(O)C1(C)C(=O)C(OC(=O)C3CC3)C3=C(C)C(OC(=O)C(O)C(C=C(F)F)NC(=O)OC(C)(C)C)CC(O)(C(OC(=O)c4cccc(Cl)c4)C21)C3(C)C (stereo not drawn) [SB-T-12852-4, 3′-Dephenyl-3′-(2,2-difluorovinyl)-2-debenzoyl-2-(3-chlorobenzoyl)-10-cyclopropanecarbonyldocetaxel]			4.2	0.12	0.5		
CC(=O)O[C@@]12CO[C@@H]1C[C@H](O)[C@@]1(C)C(=O)[C@H](OC(=O)N(C)C)C3=C(C)[C@@H](OC(=O)[C@H](O)[C@H](C=C(F)F)NC(=O)OC(C)(C)C)C[C@@](O)([C@@H](OC(=O)c4cccc(F)c4)C12)C3(C)C (stereo partly drawn) [SB-T-12854-2, 3′-Dephenyl-3′-(2,2-difluorovinyl)-2-debenzoyl-2-(3-fluorobenzoyl)-10-dimethylcarbamoyldocetaxel]			9.4			0.17	2.25
COc1cccc(C(=O)O[C@H]2[C@@H]3[C@]4(OC(C)=O)CO[C@@H]4C[C@H](O)[C@@]3(C)C(=O)[C@H](OC(=O)C3CC3)C3=C(C)[C@@H](OC(=O)[C@H](O)[C@H](C=C(F)F)NC(=O)OC(C)(C)C)C[C@]2(O)C3(C)C)c1 [SB-T-12852-1, 3′-Dephenyl-3′-(2,2-difluorovinyl)-2-debenzoyl-2-(3-methoxybenzoyl)-10-cyclopropanecarbonyldocetaxel]			5.2	0.092	0.48		
CC(=O)O[C@@]12CO[C@@H]1C[C@H](O)[C@@]1(C)C(=O)[C@H](OC(=O)N(C)C)C3=C(C)[C@@H](OC(=O)[C@H](O)[C@H](C=C(F)F)NC(=O)OC(C)(C)C)C[C@@](O)([C@@H](OC(=O)c4cccc(Cl)c4)C12)C3(C)C (stereo partly drawn) [SB-T-12854-4, 3′-Dephenyl-3′-(2,2-difluorovinyl)-2-debenzoyl-2-(3-chlorobenzoyl)-10-dimethylcarbamoyldocetaxel]			2.8			0.93	2.6
COC(=O)O[C@H]1C(=O)[C@@]2(C)C([C@H](OC(=O)c3cccc(OC)c3)[C@]3(O)C[C@H](OC(=O)[C@H](O)[C@H](C=C(F)F)NC(=O)OC(C)(C)C)C(C)=C1C3(C)C)[C@]1(OC(C)=O)CO[C@@H]1C[C@@H]2O (stereo partly drawn) [SB-T-12855-1, 3′-Dephenyl-3′-(2,2-difluorovinyl)-2-debenzoyl-2-(3-methoxybenzoyl)-10-methoxycarbonyldocetaxel]	0.078	0.5	6.4				
COC(=O)O[C@H]1C(=O)[C@@]2(C)C([C@H](OC(=O)c3cccc(N=[N+]=[N-])c3)[C@]3(O)C[C@H](OC(=O)[C@H](O)[C@H](C=C(F)F)NC(=O)OC(C)(C)C)C(C)=C1C3(C)C)[C@]1(OC(C)=O)CO[C@@H]1C[C@@H]2O (stereo partly drawn) [SB-T-12855-3, 3′-Dephenyl-3′-(2,2-difluorovinyl)-2-debenzoyl-2-(3-azidobenzoyl)-10-methoxycarbonyldocetaxel]	0.076	0.4	5.3				

Reference: patent US7981926B2, “Fluorotaxoids” (Research Foundation of State University of New York, priority 2005, dated 2011)
